This is an account of results in US4496551A (priority 1983, dated 1985).

In the first data set the test system is Puccinia recondita var. tritici. Kind of data set: wheat leaf rust control on wheat seedlings. Format: in vivo. Conditions: 100 ppm, sprayed day before inoculation. The procedure, abridged:
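Compounds at 100 ppm (6% acetone, 250 ppm polyhydric alcohol ester surfactant in water) sprayed to run-off on wheat seedlings; inoculated next day with P. recondita spores. Kept 24 h at saturated humidity, 20°, then 7 days in growth room before rust pustule rating.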
Take `C[Si](C)(Cn1ccnc1)C1CCCCC1` [Cyclohexyl(dimethyl(1H-imidazol-1-ylmethyl)silane]: the pest or weed control at 100 ppm is 0%.
Still for that read-out and setting: as for `C[Si](C)(Cn1ccnc1)c1ccc(F)cc1` [Dimethyl(4-fluorophenyl)(1H-imidazol-1-ylmethyl)silane], the figure is 80%.

Staying with this data set, now noted: 400 ppm.
For the compound `C[Si](C)(Cn1ccnc1)c1ccc(C(F)(F)F)cc1` [Dimethyl(1H-imidazol-1-ylmethyl)(4-trifluoromethylphenyl)silane], the pest or weed control at 400 ppm stood at 100%.
The same measure, in the same setting: in the case of `CCCCCCCCCCCC[Si](C)(C)Cn1ccnc1` [Dodecyl(dimethyl)(1H-imidazol-1-ylmethyl)silane] it was 80%.

For the next data set, the system named is Erysiphe cichoracearum. As to the kind of experiment: cucumber powdery mildew control on cucumber seedlings. The format is in vivo. Conditions: Golovinomyces cichoracearum, 168 h, 7 days. In short, it runs like this:
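Compounds at 100 ppm in water with 6% acetone and 250 ppm TREM 014 surfactant, sprayed to run-off on cucumber seedlings. Inoculation with Erysiphe cichoracearum spores the following day; disease rated after 7 days in a growth room against untreated plants.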
In turn, `C[Si](C)(Cn1ccnc1)C1CCCCC1` [Cyclohexyl(dimethyl(1H-imidazol-1-ylmethyl)silane] had a pest or weed control at 100 ppm of 100%.
The same measure, in the same setting: as for `C[Si](C)(Cn1ccnc1)c1ccc(C(F)(F)F)cc1` [Dimethyl(1H-imidazol-1-ylmethyl)(4-trifluoromethylphenyl)silane], the figure is 100%; as for `C[Si](C)(Cn1ccnc1)c1ccc(F)cc1` [Dimethyl(4-fluorophenyl)(1H-imidazol-1-ylmethyl)silane], 100%.
Same read-out and setting: in the case of `CCCCCCCCCCCC[Si](C)(C)Cn1ccnc1` [Dodecyl(dimethyl)(1H-imidazol-1-ylmethyl)silane] it was 55%.

For a further data set, the system named is Erysiphe graminis. Kind of data set: barley powdery mildew control on barley seedlings. Format: in vivo. Conditions: Blumeria graminis, 168 h; 100 ppm, 7 days. Here is the method:
Several compounds of the previous examples were again dissolved in acetone in an amount equal to 6% of the final volume and then suspended at a concentration of 100 ppm in purified water containing 250 ppm of the surfactant TREM 014 (polyhydric alcohol esters). This suspension was sprayed to the point of run-off on barley seedlings. The following day, the plants were inoculated with a spore suspension of the fungus Erysiphe graminis, causal agent of barley powdery mildew, and incubated in a growth room for 7 days. Disease ratings were then made. Treated plants had little or no powdery mildew in contrast to untreated plants which were covered with powdery mildew.
`C[Si](C)(Cn1ccnc1)c1ccc(C(F)(F)F)cc1` [Dimethyl(1H-imidazol-1-ylmethyl)(4-trifluoromethylphenyl)silane] came in with a pest or weed control at 100 ppm of 100%.

The same data set, now with this note: Blumeria graminis, 168 h; 200 ppm.
As for `CCCCCCCCCCCC[Si](C)(C)Cn1ccnc1` [Dodecyl(dimethyl)(1H-imidazol-1-ylmethyl)silane], the pest or weed control at 200 ppm stood at 100%.

Another data set relates to Venturia inaequalis. Kind of data set: apple scab control on apple seedlings. Format: in vivo. The settings on record: Venturia inaequalis; 100 ppm. In short, it runs like this:
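Apple seedlings sprayed to run-off with 100 ppm compound suspension (6% acetone, 250 ppm TREM 014 surfactant). Inoculated next day with Venturia inaequalis spores; 24 hours at 20° in saturated humidity, then 10-12 days in growth room. Scab lesions compared with untreated plants.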
Compound `C[Si](C)(Cn1ccnc1)C1CCCCC1` [Cyclohexyl(dimethyl(1H-imidazol-1-ylmethyl)silane] yielded a pest or weed control at 100 ppm of 100%.
Same read-out and setting: as for `C[Si](C)(Cn1ccnc1)c1ccc(F)cc1` [Dimethyl(4-fluorophenyl)(1H-imidazol-1-ylmethyl)silane], the figure is 0%; as for `CCCCCCCCCCCC[Si](C)(C)Cn1ccnc1` [Dodecyl(dimethyl)(1H-imidazol-1-ylmethyl)silane], 0%.

The data set is the same for the next values; noted with them: Venturia inaequalis; 400 ppm.
In turn, `C[Si](C)(Cn1ccnc1)c1ccc(C(F)(F)F)cc1` [Dimethyl(1H-imidazol-1-ylmethyl)(4-trifluoromethylphenyl)silane] came in with a pest or weed control at 400 ppm of 60%.

The test system of a further data set is Helminthosporium maydis. As to the kind of experiment: southern corn leaf blight control on corn seedlings. The format is in vivo. Conditions: Bipolaris maydis, 168 h. In short, it runs like this:
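Corn seedlings were sprayed to run-off with 100 ppm compound (6% acetone, 250 ppm TREM 014), inoculated next day with H. maydis spores, then kept 24 h at 20° in saturated humidity and 7 more days in a growth room. Lesions were rated as disease score.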
`C[Si](C)(Cn1ccnc1)C1CCCCC1` [Cyclohexyl(dimethyl(1H-imidazol-1-ylmethyl)silane] displayed a pest or weed control at 100 ppm of 50%.
For the compound `C[Si](C)(Cn1ccnc1)c1ccc(F)cc1` [Dimethyl(4-fluorophenyl)(1H-imidazol-1-ylmethyl)silane], the pest or weed control at 100 ppm is 0%.
In the case of `CCCCCCCCCCCC[Si](C)(C)Cn1ccnc1` [Dodecyl(dimethyl)(1H-imidazol-1-ylmethyl)silane], the pest or weed control at 100 ppm is 0%.

The next data set deals with Cercospora arachidicola. As to the kind of experiment: peanut early leafspot control on peanut seedlings. The format is in vivo. The settings on record: Mycosphaerella arachidis, 336 h. The procedure, abridged: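 Compounds dissolved in acetone (6% of final volume) and suspended at 100 ppm in water with 250 ppm TREM 014, sprayed to run-off on seedlings. Cercospora arachidicola inoculated next day; 24 h saturated humidity at 27°, then 14 days growth room before disease and leafspot rating.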
`C[Si](C)(Cn1ccnc1)C1CCCCC1` [Cyclohexyl(dimethyl(1H-imidazol-1-ylmethyl)silane] registered a pest or weed control at 100 ppm of 0%.
Still for that read-out and setting: in the case of `C[Si](C)(Cn1ccnc1)c1ccc(C(F)(F)F)cc1` [Dimethyl(1H-imidazol-1-ylmethyl)(4-trifluoromethylphenyl)silane] it was 36%; in that of `C[Si](C)(Cn1ccnc1)c1ccc(F)cc1` [Dimethyl(4-fluorophenyl)(1H-imidazol-1-ylmethyl)silane], 60%.

Another data set concerns Rhizoctonia solani. As to the kind of experiment: rice sheath blight control on rice seedlings. Format: in vivo. Conditions: Rhizoctonia solani, 168 h, 7 days. The procedure, abridged:
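Rice seedlings sprayed to run-off with 100 ppm compound suspension (6% acetone, 250 ppm surfactant), then inoculated next day with bran/mycelium of Rhizoctonia solani. After 7 days in a growth room, sheath blight disease was rated.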
`C[Si](C)(Cn1ccnc1)C1CCCCC1` [Cyclohexyl(dimethyl(1H-imidazol-1-ylmethyl)silane] had a pest or weed control at 100 ppm of 0%.
On the same count and under the same terms, in the case of `C[Si](C)(Cn1ccnc1)c1ccc(F)cc1` [Dimethyl(4-fluorophenyl)(1H-imidazol-1-ylmethyl)silane] it was 0%.

Another data set deals with Pyricularia oryzae. Kind of data set: whole plant or invertebrate. The format is in vivo. Conditions: 168 h, read-out: % Control of Rice Blast.
As for `C[Si](C)(Cn1ccnc1)c1ccc(F)cc1` [Dimethyl(4-fluorophenyl)(1H-imidazol-1-ylmethyl)silane], the pest or weed control at 100 ppm is 0%.

The test system of the next data set is Phytophthora infestans. Kind of data set: whole plant or invertebrate. Format: in vivo. Conditions: Phytophthora infestans, in Solanum lycopersicum, 168 h, read-out: % Control of Tomato Late Blight.
Consider `C[Si](C)(Cn1ccnc1)c1ccc(F)cc1` [Dimethyl(4-fluorophenyl)(1H-imidazol-1-ylmethyl)silane], for which the pest or weed control at 100 ppm stood at 0%.

For a further data set, the system named is Pythium aphanadermatum. As to the kind of experiment: Pythium control on coated cotton seeds. Format: in vivo. Conditions: 168 h, 2 gm/kg seed, 1 week. The procedure, abridged: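 Cotton seeds coated with formulated compound at 2 gm/kg seed, air dried, and planted in soil amended with Pythium aphanadermatum, sand and corn meal. Held 1 week at room temperature before disease rating.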
In turn, `C[Si](C)(Cn1ccnc1)c1ccc(F)cc1` [Dimethyl(4-fluorophenyl)(1H-imidazol-1-ylmethyl)silane] returned a pest or weed control at 2000 mg/kg of 0%.

The next data set concerns Pythium aphanadermatum. Kind of data set: Pythium control on coated corn seeds. The settings on record: 504 h, 2 gm/kg seed, 49° F. 2 weeks then 70° F. 1 week. The format is in vivo. The procedure, abridged: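 Formulated compounds were coated onto corn seeds at 2 gm/kg seed, air-dried and sown in soil infested with Pythium aphanadermatum at a rate lethal to most untreated seeds. Seeds were held 2 weeks at 49° F, then 1 week at 70° F, before disease rating.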
As for `C[Si](C)(Cn1ccnc1)c1ccc(F)cc1` [Dimethyl(4-fluorophenyl)(1H-imidazol-1-ylmethyl)silane], the pest or weed control at 2000 mg/kg was 15%.

The subject of a further data set is cucumber seedlings. As to the kind of experiment: phytotoxicity on cucumber seedlings. The format is in vivo. Also on record: key: G: growth reduction; H: hormonal effects. The settings on record: 100 ppm.
Consider `C[Si](C)(Cn1ccnc1)C1CCCCC1` [Cyclohexyl(dimethyl(1H-imidazol-1-ylmethyl)silane], for which the “Phytotoxicity (growth reduction or hormonal effects)” value is “G”.
Regarding `C[Si](C)(Cn1ccnc1)c1ccc(F)cc1` [Dimethyl(4-fluorophenyl)(1H-imidazol-1-ylmethyl)silane], the “Phytotoxicity (growth reduction or hormonal effects)” value is “G”.

In a further data set the test system is apple seedlings. As to the kind of experiment: phytotoxicity on apple seedlings. The format is in vivo. Conditions: 100 ppm. Also noted: key: B: Phytotoxic burn. Here is the method:
Compounds of this invention were dissolved in acetone in an amount equal to 6% of the final volume and then suspended at a concentration of 100 ppm in purified water containing 250 ppm of the surfactant TREM 014 (polyhydric alcohol esters). This suspension was sprayed to the point of run-off on apple seedlings. The following day, the plants were inoculated with a spore suspension of the fungus Venturia inaequalis, causal agent of apple scab, and incubated in a saturated humidity chamber at 20° for 24 hours and then in a growth room for an additional 10-12 days. Treated plants from successful treatments had few or no apple scab lesions when compared to untreated plants which were covered with scab lesions.
For `C[Si](C)(Cn1ccnc1)C1CCCCC1` [Cyclohexyl(dimethyl(1H-imidazol-1-ylmethyl)silane], the Phytotoxic burn result is “B”.
Same read-out and setting: as for `CCCCCCCCCCCC[Si](C)(C)Cn1ccnc1` [Dodecyl(dimethyl)(1H-imidazol-1-ylmethyl)silane], the entry is “B”.

The test system of the next data set is peanut seedlings. As to the kind of experiment: phytotoxicity on peanut seedlings. Format: in vivo. Also on record: key: B: Phytotoxic burn. The settings on record: 100 ppm. As for the experimental part:
Compounds of the previous examples were again dissolved in acetone in an amount equal to 6% of the final volume and then suspended at a concentration of 100 ppm in purified water containing 250 ppm of the surfactant TREM 014 (polyhydric alcohol esters). This suspension was sprayed to the point of run-off on peanut seedlings. The following day, the plants were inoculated with a spore suspension of Cercospora arachidicola, causal agent of peanut early leafspot, and incubated in a saturated humidity chamber at 27° for 24 hours and then in a growth room for an additional 14 days, when disease ratings were made. Treated plants from successful treatments had few or no leafspots while the untreated plants had numerous leafspots on each leaf.
As to `C[Si](C)(Cn1ccnc1)c1ccc(C(F)(F)F)cc1` [Dimethyl(1H-imidazol-1-ylmethyl)(4-trifluoromethylphenyl)silane], the Phytotoxic burn result is given as “B”.
Same read-out and setting: in the case of `C[Si](C)(Cn1ccnc1)c1ccc(F)cc1` [Dimethyl(4-fluorophenyl)(1H-imidazol-1-ylmethyl)silane] it was “B”.
